ChEMBL document CHEMBL1201862, “PubChem BioAssay data set” (2004)
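Growth conditions: 96-well plates. Treatment: test compound, 48 hours, 5 concentrations. Analysis: linear interpolation between bracketing concentrations; unreached endpoints set to highest concentration. Abbreviation: GI50, concentration required for 50% inhibition of growth.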 The source made the active and inactive calls. No stated cut-off is given here; in the data, active = GI50 up to about 1.1 µM and inactive = higher.

Experiments:
Experiment in all cases: DTP human tumour cell line panel, 48 h
OVCAR-5 = test system: OVCAR-5
HCT-116 = test system: HCT-116
OVCAR-3 = test system: OVCAR-3
SF-295 = test system: SF-295
NCI-H23 = test system: NCI-H23
HOP-18 = test system: HOP-18
RPMI-8226 = test system: RPMI-8226
SNB-78 = test system: SNB-78
SK-MEL-5 = test system: SK-MEL-5
NCI-H460 = test system: NCI-H460
SK-MEL-2 = test system: SK-MEL-2
HCC 2998 = test system: HCC 2998
SR = test system: SR
UACC-257 = test system: UACC-257
XF498 = test system: XF498
OVCAR-4 = test system: OVCAR-4
DMS-114 = test system: DMS-114
Malme-3M = test system: Malme-3M
LXFL 529 = test system: LXFL 529
M14 = test system: M14
RXF 393 = test system: RXF 393
CAKI-1 = test system: CAKI-1
HOP-62 = test system: HOP-62
SN12C = test system: SN12C
COLO 205 = test system: COLO 205
DLD-1 = test system: DLD-1
UO-31 = test system: UO-31
SNB-75 = test system: SNB-75
HOP-92 = test system: HOP-92
TK-10 = test system: TK-10
OVCAR-8 = test system: OVCAR-8
SF-268 = test system: SF-268
LOX IMVI = test system: LOX IMVI
IGROV-1 = test system: IGROV-1
HCT-15 = test system: HCT-15
HT-29 = test system: HT-29
ACHN = test system: ACHN
UACC-62 = test system: UACC-62
K562 = test system: K562
A498 = test system: A498
DMS-273 = test system: DMS-273
CCRF-CEM = test system: CCRF-CEM
HL-60 = test system: HL-60
786-0 = test system: 786-0
KM-20L2 = test system: KM-20L2
A549 = test system: A549
SNB-19 = test system: SNB-19
SK-MEL-28 = test system: SK-MEL-28
M19-MEL = test system: M19-MEL
KM12 = test system: KM12
SF-539 = test system: SF-539
EKVX = test system: EKVX
MOLT-4 = test system: MOLT-4
NCI-H226 = test system: NCI-H226
NCI-H522 = test system: NCI-H522
U-251 = test system: U-251
SW-620 = test system: SW-620
SK-OV-3 = test system: SK-OV-3
RXF 631 = test system: RXF 631

Measured: GI50

C/C(CC(=O)Nc1ccc(Cl)c(Cl)c1)=N/NC(=O)C[N+](C)(C)C
> 100 µM: HCT-15
active: SK-MEL-28 0.194 µM
inactive: OVCAR-5 > 100 µM | HCT-116 > 100 µM | OVCAR-3 > 100 µM | SF-295 > 100 µM | NCI-H23 > 100 µM | HOP-18 > 100 µM | RPMI-8226 25.8 µM | SNB-78 > 100 µM | SK-MEL-5 > 100 µM | NCI-H460 65.2 µM | SK-MEL-2 > 100 µM | HCC 2998 > 100 µM | SR 22.5 µM | UACC-257 > 100 µM | XF498 > 100 µM | OVCAR-4 > 100 µM | DMS-114 21.5 µM | Malme-3M > 100 µM | LXFL 529 > 100 µM | M14 > 100 µM | RXF 393 > 100 µM | CAKI-1 > 100 µM | HOP-62 > 100 µM | SN12C > 100 µM | COLO 205 35.2 µM | DLD-1 29.2 µM | UO-31 > 100 µM | SNB-75 > 100 µM | HOP-92 > 100 µM | TK-10 > 100 µM | OVCAR-8 > 100 µM | SF-268 > 100 µM | LOX IMVI 18.1 µM | IGROV-1 > 100 µM | HT-29 > 100 µM | ACHN > 100 µM | UACC-62 > 100 µM | K562 46.1 µM | A498 > 100 µM | DMS-273 38.8 µM | CCRF-CEM > 100 µM | HL-60 44 µM | 786-0 56.5 µM | KM-20L2 > 100 µM | A549 > 100 µM | SNB-19 > 100 µM | M19-MEL > 100 µM | KM12 > 100 µM | SF-539 > 100 µM | EKVX > 100 µM | MOLT-4 > 100 µM | NCI-H226 > 100 µM

COC1=CC(=O)c2c(cc3c(c2O)-c2c(OC)cc4cc5c(c(O)c4c2OC(=O)CC(C)(O)C3)C(=O)CC(C)(O)C5)C1=O (stereo not given)
inactive: NCI-H522 1.32 µM | OVCAR-5 2.14 µM | HCT-116 2.45 µM | SF-295 1.44 µM | HOP-18 1.3 µM | RPMI-8226 1.32 µM | SNB-78 1.85 µM | U-251 2.77 µM | NCI-H460 1.31 µM | SK-MEL-2 1.28 µM | HCC 2998 1.24 µM | SR 2.02 µM | UACC-257 1.76 µM | XF498 1.37 µM | OVCAR-4 3.15 µM | DMS-114 1.69 µM | Malme-3M 1.82 µM | LXFL 529 1.16 µM | M14 1.25 µM | RXF 393 2.05 µM | CAKI-1 2.23 µM | HOP-62 1.21 µM | SN12C 1.8 µM | COLO 205 1.57 µM | SW-620 2.37 µM | DLD-1 2.63 µM | UO-31 1.73 µM | SNB-75 1.29 µM | HOP-92 1.95 µM | TK-10 3.85 µM | OVCAR-8 1.55 µM | SF-268 2.97 µM | LOX IMVI 1.22 µM | IGROV-1 1.9 µM | HT-29 1.96 µM | ACHN 2.64 µM | UACC-62 1.19 µM | K562 2.44 µM | A498 2.48 µM | SK-OV-3 2.76 µM | DMS-273 1.64 µM | CCRF-CEM 1.95 µM | HL-60 1.34 µM | 786-0 2.65 µM | KM-20L2 1.63 µM | A549 2.68 µM | SNB-19 1.71 µM | SK-MEL-28 1.32 µM | KM12 2.41 µM | SF-539 1.57 µM | EKVX 2.27 µM | MOLT-4 2.27 µM | NCI-H226 1.84 µM
active: OVCAR-3 0.577 µM | NCI-H23 0.624 µM | SK-MEL-5 0.237 µM | M19-MEL 0.379 µM
1.95 µM: HCT-15

CSc1nc(SC)c2c(C(N)=S)n[nH]c2n1
36.2 µM: HCT-15
inactive: NCI-H522 > 10 µM | OVCAR-3 22.1 µM | SF-295 6 µM | NCI-H23 23.8 µM | RPMI-8226 23.1 µM | SNB-78 31.8 µM | U-251 23 µM | SK-MEL-5 17.9 µM | NCI-H460 23.6 µM | SK-MEL-2 24 µM | RXF 631 32 µM | SR 30.7 µM | UACC-257 21.8 µM | OVCAR-4 21.2 µM | DMS-114 30.1 µM | Malme-3M 29.8 µM | LXFL 529 29.6 µM | M14 31.9 µM | RXF 393 22.8 µM | CAKI-1 21.1 µM | HOP-62 23.2 µM | SN12C 36.3 µM | COLO 205 18.2 µM | SW-620 37 µM | DLD-1 37 µM | UO-31 19 µM | SNB-75 25.9 µM | HOP-92 25.2 µM | TK-10 23.3 µM | OVCAR-8 28.8 µM | SF-268 31.2 µM | LOX IMVI 24.1 µM | IGROV-1 30.4 µM | HT-29 33 µM | ACHN 24 µM | UACC-62 21.8 µM | K562 26.2 µM | A498 24.5 µM | SK-OV-3 23.6 µM | DMS-273 30 µM | CCRF-CEM 26.2 µM | 786-0 28.4 µM | KM-20L2 23.1 µM | A549 23 µM | SNB-19 27.1 µM | SK-MEL-28 31.7 µM | M19-MEL 28.2 µM | KM12 37.4 µM | SF-539 23.1 µM | EKVX 22.2 µM | MOLT-4 27 µM | NCI-H226 19.9 µM
